This assay in a line: Inhibition of bakers yeast alpha-glucosidase by spectrophotometry. Set-up: species or system Saccharomyces cerevisiae.
Regarding `C=CC(C)(C)c1c(O)cc2oc3cc(O)c(O)c(CC=C(C)C)c3c(=O)c2c1O`, half-maximal inhibition (IC50) required 35.8 µM.

For `CC(C)=CCc1c2c(c(O)c3c(=O)c4cc(O)c(O)cc4oc13)C(C)(C)C(C)O2` (stereo not drawn), the IC50 (in general, the concentration that gives 50% inhibition) is 32 µM.

As to `C=CC(C)(C)c1c(O)cc(O)c2c(=O)c3cc(O)c4c(c3oc12)C=CC(C)(C)O4`, the midpoint of inhibition, the IC50, lay at 24.9 µM.

Consider `C=CC(C)(C)c1c(O)cc(O)c2c(=O)c3c(CC=C(C)C)c(O)c(O)cc3oc12` [CUDRATRICUSXANTHONE A], for which the IC50 was 37.7 µM.

Compound `C=CC(C)(C)c1c(OC)cc(O)c2c(=O)c3c(CC=C(C)C)c(O)c(O)cc3oc12` [CUDRAXANTHONE D] had an IC50 of 16.2 µM.

As for `C=CC(C)(C)c1c(O)cc2oc3c(CC=C(C)C)c(O)c(O)cc3c(=O)c2c1O` [CUDRAXANTHONE L], the IC50 was determined as 52.9 µM.

On to `CC(C)=CCc1c(O)c(O)cc2c(=O)c3c(O)c4c(cc3oc12)OC(C)C4(C)C` (stereo not drawn) [CUDRAXANTHONE M], for which the IC50 is > 100 µM.

`C=CC(C)(C)c1c(O)c(CC=C(C)C)c2oc3cc(O)c(O)cc3c(=O)c2c1O` [MACLURAXANTHONE B] gave an IC50 of 38.2 µM.
